From US6914045B2, “Glycopeptide antibiotics” (Wyeth Holdings Corporation, priority 2001, dated 2005)
≈ marks a conversion by molar mass, not a printed value.

Columns and labels:
Experiment in all cases: in vitro antibacterial evaluation, MIC by broth dilution
Type in all cases: cell-based
Enterococcus sp. = settings: broth dilution, 18 hours at 35° C.
Procedure, shortened: (§1)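 Read-out: the lowest concentration at which the test strain fails to grow. Serial dilutions (64-0.06 μg/mL) in Muller-Hinton II […], 5×10^5 CFU/mL inoculum, NCCLS M7-A2 procedure.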

Escherichia coli = settings: 18 hours at 35° C.
Procedure, shortened: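 Test organisms, which included recent clinical isolates resistant to methicillin, penicillin and/or vancomycin, were inoculated at 5×10^5 CFU/mL into Muller-Hinton II […] containing antibiotic at 64-0.06 μg/mL. Minimum inhibitory concentrations were then read as the lowest level inhibiting growth.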

Staphylococcus sp. = settings: broth dilution, 18 hours at 35° C.
Procedure, shortened: as §1

Streptococcus sp. = settings: broth dilution, 18 hours at 35° C.
Procedure, shortened: as §1

MIC Enterococcus avium (GC 4558) (Enterococcus sp.; Enterococcus avium (GC 4558)): 128 µg/mL (≈ 93.7 µM)
MIC Enterococcus faecalis (ATCC 29212) (Enterococcus sp.; Enterococcus faecalis (ATCC 29212)): 128 µg/mL (≈ 93.7 µM)
MIC Enterococcus faecalis (GC 4553) (Enterococcus sp.; Enterococcus faecalis (GC 4553)): 128 µg/mL (≈ 93.7 µM)
MIC Enterococcus faecalis (GC 4554) (Enterococcus sp.; Enterococcus faecalis (GC 4554)): >128 µg/mL
MIC Enterococcus faecalis (GC 6189) (Enterococcus sp.; Enterococcus faecalis (GC 6189)): 128 µg/mL (≈ 93.7 µM)
MIC Enterococcus faecium (GC 2243) (Enterococcus sp.; Enterococcus faecium (GC 2243)): 128 µg/mL (≈ 93.7 µM)
MIC Enterococcus faecium (GC 4556) (Enterococcus sp.; Enterococcus faecium (GC 4556)): 128 µg/mL (≈ 93.7 µM)
MIC Enterococcus faecium (GC 4557) (Enterococcus sp.; Enterococcus faecium (GC 4557)): 16 µg/mL (≈ 11.7 µM)
MIC Enterococcus faecalis (ATCC 29212) (Enterococcus sp.; strain ATCC 29212): 128 µg/mL (≈ 93.7 µM)
MIC Enterococcus faecalis (GC 2242) (Enterococcus sp.; strain GC 2242): 128 µg/mL (≈ 93.7 µM)
MIC Enterococcus faecium (GC 2243) (Enterococcus sp.; strain GC 2243): 128 µg/mL (≈ 93.7 µM)
MIC Enterococcus faecalis (GC 2691) (Enterococcus sp.; strain GC 2691): 128 µg/mL (≈ 93.7 µM)
MIC Enterococcus faecalis (GC 3059) (Enterococcus sp.; strain GC 3059): >128 µg/mL
MIC Enterococcus faecalis (GC 4552) (Enterococcus sp.; strain GC 4552): 128 µg/mL (≈ 93.7 µM)
MIC Enterococcus faecalis (GC 4553) (Enterococcus sp.; strain GC 4553): 128 µg/mL (≈ 93.7 µM)
MIC Enterococcus faecalis (GC 4554) (Enterococcus sp.; strain GC 4554): >128 µg/mL
MIC Enterococcus faecium (GC 4556) (Enterococcus sp.; strain GC 4556): 128 µg/mL (≈ 93.7 µM)
MIC Enterococcus faecium (GC 4557) (Enterococcus sp.; strain GC 4557): 16 µg/mL (≈ 11.7 µM)
MIC Enterococcus avium (GC 4558) (Enterococcus sp.; strain GC 4558): 128 µg/mL (≈ 93.7 µM)
MIC Enterococcus faecalis (GC 6189) (Enterococcus sp.; strain GC 6189): 128 µg/mL (≈ 93.7 µM)
MIC Escherichia coli (ATCC 25922) (Escherichia coli; Escherichia coli (ATCC 25922)): 128 µg/mL (≈ 93.7 µM)
MIC Escherichia coli (GC 4559) (Escherichia coli; Escherichia coli (GC 4559)): 128 µg/mL (≈ 93.7 µM)
MIC Escherichia coli (GC 4560) (Escherichia coli; Escherichia coli (GC 4560)): 8 µg/mL (≈ 5.86 µM)
MIC Coagulase Negative Staphylococcus (GC 4547) (Staphylococcus sp.): 16 µg/mL (≈ 11.7 µM)
MIC Coagulase Negative Staphylococcus (GC 4548) (Staphylococcus sp.): 8 µg/mL (≈ 5.86 µM)
MIC Coagulase Negative Staphylococcus (GC 4549) (Staphylococcus sp.): 16 µg/mL (≈ 11.7 µM)
MIC Coagulase Negative Staphylococcus (GC 4551) (Staphylococcus sp.): 32 µg/mL (≈ 23.4 µM)
MIC Staphylococcus aureus (ATCC 29213) (Staphylococcus sp.): 32 µg/mL (≈ 23.4 µM)
MIC Staphylococcus aureus (GC 1131) (Staphylococcus sp.): 32 µg/mL (≈ 23.4 µM)
MIC Staphylococcus aureus (GC 3051) (Staphylococcus sp.): 32 µg/mL (≈ 23.4 µM)
MIC Staphylococcus aureus (GC 3053) (Staphylococcus sp.): 64 µg/mL (≈ 46.9 µM)
MIC Staphylococcus aureus (GC 4541) (Staphylococcus sp.): 32 µg/mL (≈ 23.4 µM)
MIC Staphylococcus aureus (GC 4542) (Staphylococcus sp.): 32 µg/mL (≈ 23.4 µM)
MIC Staphylococcus aureus (GC 4544) (Staphylococcus sp.): 32 µg/mL (≈ 23.4 µM)
MIC Staphylococcus aureus (GC 4545) (Staphylococcus sp.): 16 µg/mL (≈ 11.7 µM)
MIC Staphylococcus aureus-SMITH (GC 4543) (Staphylococcus sp.): 16 µg/mL (≈ 11.7 µM)
MIC Staphylococcus aureus (ATCC 29213) (Staphylococcus sp.; strain ATCC 29213): 32 µg/mL (≈ 23.4 µM)
MIC Staphylococcus aureus (GC 1131) (Staphylococcus sp.; strain GC 1131): 32 µg/mL (≈ 23.4 µM)
MIC Staphylococcus aureus (GC 3051) (Staphylococcus sp.; strain GC 3051): 32 µg/mL (≈ 23.4 µM)
MIC Staphylococcus aureus (GC 3053) (Staphylococcus sp.; strain GC 3053): 64 µg/mL (≈ 46.9 µM)
MIC Staphylococcus aureus (GC 4541) (Staphylococcus sp.; strain GC 4541): 32 µg/mL (≈ 23.4 µM)
MIC Staphylococcus aureus (GC 4542) (Staphylococcus sp.; strain GC 4542): 32 µg/mL (≈ 23.4 µM)
MIC Staphylococcus aureus (GC 4544) (Staphylococcus sp.; strain GC 4544): 32 µg/mL (≈ 23.4 µM)
MIC Staphylococcus aureus (GC 4545) (Staphylococcus sp.; strain GC 4545): 16 µg/mL (≈ 11.7 µM)
MIC Coagulase Negative Staphylococcus (GC 4547) (Staphylococcus sp.; strain GC 4547): 16 µg/mL (≈ 11.7 µM)
MIC Coagulase Negative Staphylococcus (GC 4548) (Staphylococcus sp.; strain GC 4548): 8 µg/mL (≈ 5.86 µM)
MIC Coagulase Negative Staphylococcus (GC 4549) (Staphylococcus sp.; strain GC 4549): 16 µg/mL (≈ 11.7 µM)
MIC Coagulase Negative Staphylococcus (GC 4551) (Staphylococcus sp.; strain GC 4551): 32 µg/mL (≈ 23.4 µM)
MIC Staphylococcus aureus-SMITH (GC 4543) (Staphylococcus sp.; strain SMITH GC 4543): 16 µg/mL (≈ 11.7 µM)
MIC Streptococcus pneumoniae (ATCC 6301) (Streptococcus sp.; strain ATCC 6301): 8 µg/mL (≈ 5.86 µM)
MIC Streptococcus pneumoniae (GC 1894) (Streptococcus sp.; strain GC 1894): 4 µg/mL (≈ 2.93 µM)
MIC Streptococcus pyogenes (GC 4563) (Streptococcus sp.; strain GC 4563): 16 µg/mL (≈ 11.7 µM)
MIC Streptococcus agalactiae (GC 4564) (Streptococcus sp.; strain GC 4564): 16 µg/mL (≈ 11.7 µM)
MIC Streptococcus pneumoniae (GC 4565) (Streptococcus sp.; strain GC 4565): 8 µg/mL (≈ 5.86 µM)
Structure (SMILES): CC(C)CC(=O)OCC1OC(OC2C(CO)OC(Oc3ccc(CC4NC(=O)C(Cc5ccccc5)NC(=O)CNC(=O)C(CO)NC(=O)C(C(O)C5CNC(=N)N5C5OC(CO)C(O)C(O)C5O)NC(=O)C(C(O)C5CNC(=N)N5)NC4=O)cc3)C(O)C2O)C(O)C(O)C1O (centres unmarked) [Example 283c, Cyclo[glycylphenylalanyl-O-[4-O-[6-O-(3-methylbutanoyl)-hexopyranosyl]hexopyranosyl]tyrosyl-3-(2-iminoimidazolidin-4-yl)seryl-3-(3-hexopyranosyl-2-iminoimidazolidin-4-yl)serylseryl]]
MIC Staphylococcus haemolyticus (GC 4546) (Staphylococcus sp.): 16 µg/mL (≈ 11.7 µM)
MIC Staphylococcus haemolyticus (GC 4546) (Staphylococcus sp.; strain GC 4546): 16 µg/mL (≈ 11.7 µM)
